The target of one data set is T1, dopamine D2 receptor (Rattus norvegicus, UniProt P61169).
T1 construct: P2 fraction (synaptosomal membranes) prepared from male, Wistar rats; from tissue; host or cells: striatum of male Wistar rats, P2 fraction (synaptosomal membranes)
The data set can be described thus: Receptor Binding Assay: dopamine D2 binding, 3H-spiperone, striatal P2 fraction. The settings on record: 3H-spiperone 0.05 nM, 45 min at 37° C., read-out: D-2 Binding K-I. The procedure:
The dopamine D2 binding activity of compounds was determined using a P2 fraction (synaptosomal membranes) prepared from male, Wistar rats. […] The data from this assay were analyzed by calculating the percent inhibition of the binding of the tritiated ligands by given concentrations of the test compound. Ki values, where given, were obtained from the logit analysis of concentration-inhibition curves.

Data set [1] concerns Conditioned Avoidance Responding (Rat). The data set can be described thus: Block of Conditioned Avoidance Responding (Rat) test (CAR). The class given is in vivo. The settings on record: for change in vivo at 5 mg/kg: read-out: CAR 5 mg/kg (IP) (mean % change in CAR); for Escape Loss (% failures to escape, group mean): at CAR 5 mg/kg IP. An excerpt:
Block of Conditioned Avoidance Responding (Rat)
Apparatus: Rat operant chambers, housed within sound attenuated booths, both from Capden Instruments Ltd., were used in this test. The test chamber (8" H×90-3/8" W×9" D) is constructed of aluminum and plexiglass with floor grid bars of stainless-steel (1/8" O.D.) spaced 9/16" apart. A stainless-steel operation level 1-1/2" wide projects 3/4" into the chamber and is positioned 2-2/8" above the grid floor. The shock stimulus is delivered via the grid floor by a Coulbourn Instruments solid state module. The parameters of the test and the collection of data are controlled automatically.
The rats are trained for two weeks to approach criterion levels in the avoidance test (90% avoidance rate). One-hour training sessions are run at about the same time each day for four or five days a week. The training session consists of 120 trials, with the conditioned stimuli presented every 30 seconds. A trail begins with presentation of the conditioned stimuli (a light and a tone). If the rat responds by depressing the operant lever during the 15-second presentation of the conditioned stimuli, the trial is terminated and the animal is credited with a CAR. Failure to respond during the conditioned stimuli causes the presentation of the unconditioned stimulus, a 0.7 mA shock which is accompanied by a light and tone for […]. If the rat depressed the lever within the ten-second period, the shock and trial are terminated and an escape response recorded. If the rat fails to depress the lever during the UCS (shock), the trial is terminated after ten seconds of shock and the absence of a response is scored as a failure to escape. Intertrial level presses have no effect. If a rat performs at the 90% CAR level for two weeks, it is then run twice a week o the test schedule (see below) until baseline performance stabilized.
The percent change in CAR on the drug treatment day compared to vehicle pretreatment day is the key measure. The percent change (% change) in CAR is determined using the following formula:
% change CAR=((Day 2% CAR/Day 1% CAR)×100)-100
A negative number indicates a blockade of CAR, whereas a positive number would indicate increased CAR. The test results are reported as the mean % change for the group of rats. […] Failure to escape was calculated for each animal as follows:
% Failures=# of Failures to Escape/# of trials
The % failures, viz., loss of escape, is also reported as a group mean. Failures to escape are monitored closely and a session is terminated if ten failures occurred.

[2] abbreviates: rat, 5 mg/kg IP, negative number = blockade of CAR, -20% is the minimum for active.

Each structure is given as a SMILES string. Like-named read-outs stand apart in the source and are kept apart here.

T1 sequence (P61169 whole entry): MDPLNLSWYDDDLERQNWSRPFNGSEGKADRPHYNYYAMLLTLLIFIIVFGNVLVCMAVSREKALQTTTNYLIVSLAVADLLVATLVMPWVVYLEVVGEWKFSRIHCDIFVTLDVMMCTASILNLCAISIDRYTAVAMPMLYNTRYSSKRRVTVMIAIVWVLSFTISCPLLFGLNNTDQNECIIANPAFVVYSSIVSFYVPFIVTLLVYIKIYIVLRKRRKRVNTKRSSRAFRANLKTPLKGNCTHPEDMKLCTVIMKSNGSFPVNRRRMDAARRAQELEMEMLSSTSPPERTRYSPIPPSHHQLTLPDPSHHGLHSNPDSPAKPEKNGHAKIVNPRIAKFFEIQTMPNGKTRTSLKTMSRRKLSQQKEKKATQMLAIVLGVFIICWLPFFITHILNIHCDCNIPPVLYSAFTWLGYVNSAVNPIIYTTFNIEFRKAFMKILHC

`CC(C)Oc1ccccc1N1CCN(Cc2cccc(CO)c2)CC1` [Compound 4, 1-(3-Hydroxymethylphenyl)methyl-4-[2-(1-methylethoxy)phenyl]-piperazine]: on dopamine D2 receptor, the Ki is 302 nM. For the same compound, the change in vivo at 5 mg/kg in data set [1] (Rattus norvegicus, ip) is -89.2%. In data set [1] (rat), the “Escape Loss (% failures to escape, group mean)” value worked out at 13%.
As to `COc1ccccc1N1CCN(Cc2cccc(C(O)C(C)C)c2)CC1` (stereo not drawn) [Compound 7, [3-[4-(2-Methoxyphenyl)-1-piperazinyl]methyl]-α-(1-methylethyl)-benzenemethanol], at dopamine D2 receptor, the Ki is 90 nM. Also, the change in vivo at 5 mg/kg in data set [1] (setting [2]) was -98.8%. Moreover, in data set [1] (rat), the “Escape Loss (% failures to escape, group mean)” value was 12%.
Taken in the same sequence, the figures for `COc1ccccc1N1CCN(Cc2cccc(C(O)c3ccccc3)c2)CC1` (stereo not drawn) [Compound 5, [3-[4-(2-Methoxyphenyl)-1-piperazinyl]methyl]-α-phenylbenzenemethanol] were 87 nM, -64.6% and 2%.
Taken in the same sequence, the figures for `COc1ccccc1N1CCN(Cc2cccc(C(O)C3CCCCC3)c2)CC1` (stereo not drawn) [Compound 8, [3-[4-(2-Methoxyphenyl)-1-piperazinyl]methyl]-α-(cyclohexyl)-benzenemethanol] were 16 nM, -92.9% and 2%.
Take `CCC(C)(O)c1cccc(CN2CCN(c3ccccc3OC)CC2)c1` (stereo not drawn) [Compound 6, [3-[4-(2-Methoxyphenyl)-1-piperazinyl]methyl]-α-methyl-α-ethylbenzenemethanol]: the Ki at dopamine D2 receptor stood at 198 nM. The change in vivo at 5 mg/kg in data set [1] (setting [2]) was -86%. Also, the “Escape Loss (% failures to escape, group mean)” value in data set [1] (rat) amounted to 2%.
With `COc1ccccc1N1CCN(Cc2ccc(C(O)c3ccccc3)cc2)CC1` (stereo not drawn) [Compound 9, [4-[4-(2-Methoxyphenyl)-1-piperazinyl]methyl]-α-phenylbenzenemethanol], the Ki on dopamine D2 receptor is 53 nM. The change in vivo at 5 mg/kg in data set [1] (setting [2]) is -99.4%. Moreover, the “Escape Loss (% failures to escape, group mean)” value in data set [1] (rat) turned out to be 32%.

The values are drawn from US5332743A, “Benzyl and benzhydryl alcohols” (priority 1992, dated 1994).
